Laboratory results reported in patent US8354402B2, “Polyarylcarboxamides useful as lipid lowering agents” (Janssen Pharmaceutica N.V., priority 2000, dated 2013).

How the values were obtained:
MTP = MTP (Homo sapiens, UniProt P55157); assay: MTP assay (triglyceride transfer from donor to acceptor vesicles); type: biochemical; conditions: MTP activity, 37° C.
Procedure: MTP activity was measured using an assay similar to one described by J. R. Wetterau and D. B. Zilversmit in Chemistry and Physics of Lipids (1985) 38, 205-222. In order to prepare the donor and acceptor vesicles, the appropriate lipids in chloroform were put into a glass test tube and dried under a stream of nitrogen. A buffer containing 15 mM Tris-HCl (pH 7.5), 1 mM ethylenediamine tetra-acetic acid, 40 mM NaCl, 0.02% NaN3 (assay buffer) was added to the dried lipid. The mixture was vortexed briefly and the lipids were then allowed to hydrate for 20 minutes on ice. Vesicles were then prepared by bath sonication (using a Branson 2200 device) at room temperature for at most 15 minutes. Butylated hydroxytoluene was included in all vesicle preparations at a concentration of 0.1%. The lipid transfer assay mixture contained donor vesicles (40 nmole phosphatidylcholine, 7.5 mole % cardiolipin and 0.25 mole % glycerol tri[1-^14C]-oleate), acceptor vesicles (240 nmol phosphatidylcholine) and 5 mg bovine serum albumin in a total volume of 675 μl in a 1.5 ml microcentrifuge tube. Test compounds were added dissolved in dimethylsulfoxide (0.13% final concentration). After 5 minutes of pre-incubation at 37° C., the reaction was started by the addition of MTP in 100 μl of a dialysis buffer. The reaction was stopped by the addition of 400 μl […] (DEAE)-52 cellulose (Sephadex) pre-equilibrated in 15 mM Tris-HCl (pH 7.5), 1 mM ethylenediamine tetra-acetic acid and 0.02% NaN3 (1:1 volume/volume). The mixture was agitated for 4 minutes and centrifuged for 2 minutes at maximum speed in an Eppendorf centrifuge (4° C.) to pellet the DEAE-52-bound donor vesicles. An aliquot of the supernatant containing the acceptor liposomes was counted and the [^14C]-counts were used to calculate the percent triglyceride transfer from donor to acceptor vesicles.
Resulting IC50 values are enumerated in Table C.2 for some of the above-referred compounds.

[1] = tested on: ApoB secretion, HepG2 cells; assay: Quantification of the secretion of ApoB (HepG2 cells, immunoprecipitation, scintillation counting); type: cell-based; conditions: 24 hours of incubation; for IC50: Homo sapiens, HepG2, 24 h
Procedure, shortened: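 HepG2 cells in MEM Rega 3 with 10% FCS were treated at 70% confluency with compound (DMSO 0.4% final) for 24 h. Medium ApoB was immunoprecipitated with sheep anti-apoB then rabbit anti-sheep antibody (24 h each, 8° C), and pellet radioactivity was counted by liquid scintillation to give IC50.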

MTP, sequence (P55157 19-894, species assumed): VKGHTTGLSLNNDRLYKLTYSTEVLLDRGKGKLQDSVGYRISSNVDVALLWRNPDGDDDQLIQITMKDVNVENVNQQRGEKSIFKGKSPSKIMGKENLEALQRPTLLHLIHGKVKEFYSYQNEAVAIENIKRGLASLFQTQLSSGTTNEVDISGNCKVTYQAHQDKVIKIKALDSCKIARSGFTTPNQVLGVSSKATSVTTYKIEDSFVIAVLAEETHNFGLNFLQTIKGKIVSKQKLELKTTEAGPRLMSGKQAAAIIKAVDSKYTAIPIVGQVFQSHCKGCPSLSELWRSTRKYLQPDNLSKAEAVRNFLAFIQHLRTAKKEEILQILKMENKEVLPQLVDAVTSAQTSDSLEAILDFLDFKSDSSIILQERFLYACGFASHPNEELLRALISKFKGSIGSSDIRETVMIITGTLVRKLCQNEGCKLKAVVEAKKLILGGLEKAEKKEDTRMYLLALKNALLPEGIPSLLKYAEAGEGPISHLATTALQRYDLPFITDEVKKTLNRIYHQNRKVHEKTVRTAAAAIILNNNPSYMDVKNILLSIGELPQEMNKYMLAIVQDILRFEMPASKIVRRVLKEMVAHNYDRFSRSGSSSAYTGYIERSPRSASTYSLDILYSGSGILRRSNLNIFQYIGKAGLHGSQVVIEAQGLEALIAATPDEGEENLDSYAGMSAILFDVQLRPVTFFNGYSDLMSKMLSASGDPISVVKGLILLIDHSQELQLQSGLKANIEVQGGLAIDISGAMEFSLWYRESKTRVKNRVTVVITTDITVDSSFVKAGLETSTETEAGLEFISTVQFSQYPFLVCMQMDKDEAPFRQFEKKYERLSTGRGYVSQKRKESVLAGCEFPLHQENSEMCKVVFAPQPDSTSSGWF
MTP, sequence (P07237 18-508 partner, species assumed): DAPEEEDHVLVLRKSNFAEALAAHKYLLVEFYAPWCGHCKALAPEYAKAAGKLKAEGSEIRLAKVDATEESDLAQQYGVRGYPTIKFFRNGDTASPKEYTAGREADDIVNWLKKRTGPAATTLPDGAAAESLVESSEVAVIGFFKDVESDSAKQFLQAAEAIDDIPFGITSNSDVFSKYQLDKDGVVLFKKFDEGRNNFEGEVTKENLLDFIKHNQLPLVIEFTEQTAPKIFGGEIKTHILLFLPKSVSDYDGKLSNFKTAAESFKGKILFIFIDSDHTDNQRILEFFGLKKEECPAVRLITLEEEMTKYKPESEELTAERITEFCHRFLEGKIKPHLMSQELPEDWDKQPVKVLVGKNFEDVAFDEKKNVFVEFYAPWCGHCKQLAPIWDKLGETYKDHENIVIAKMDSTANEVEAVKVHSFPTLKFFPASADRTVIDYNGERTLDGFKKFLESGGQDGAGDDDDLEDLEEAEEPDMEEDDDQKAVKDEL

Q: What does the source list for `CCCNC(=O)C(c1ccccc1)N1CCN(c2ccc(NC(=O)c3ccccc3-c3ccc(C(F)(F)F)cc3)cc2)CC1` (stereo not drawn) [Co. No. 55]?
A: IC50 (MTP): 4.27 nM; IC50 [1]: ≤ 30 nM

Q: What does the source list for `O=C(Nc1ccc(N2CCC(C(C(=O)NCc3ccccc3)c3ccccc3)CC2)cc1)c1ccccc1COc1ccccc1` (stereo not drawn) [Co. No. 7]?
A: IC50 (MTP): 363 nM; IC50 [1]: 261 nM

Q: For `CCNC(=O)C(c1ccccc1)C1CCN(c2ccc(NC(=O)c3ccccc3-c3ccc(C(C)(C)C)cc3)cc2)CC1` (stereo not drawn) [Co. No. 87], which IC50 (MTP) is on record?
A: The IC50 was 3.2 nM.

Q: And the IC50 [1]?
A: The IC50 was 2.05 nM.

Q: `COC(=O)C(c1ccccc1)N1CCN(c2ccc(NC(=O)c3ccccc3-c3ccc(C(F)(F)F)cc3)cc2)CC1` (stereo not drawn) [Co. No. 239] was tested. Which IC50 (MTP) did it give?
A: The IC50 was 1.98 nM.

Q: And the pIC50 ([1]; listed as 239)?
A: Its pIC50 is 7.855.

Q: How did the IC50 (MTP) turn out when `CCCNC(=O)C(c1ccccc1)C1CCN(c2ccc(NC(=O)c3ccccc3CSc3ccccc3)cc2)CC1` (stereo not drawn) [Co. No. 16] was run?
A: Its IC50 is 208 nM.

Q: What about the IC50 [1] of the same compound?
A: The IC50 was 83.8 nM.

Q: What does the source list for `O=C(Nc1ccc(N2CCN(C(C(=O)NCc3ccccc3)c3ccccc3)CC2)cc1)c1ccccc1-c1ccc(C(F)(F)F)cc1` (stereo not drawn) [Co. No. 61]?
A: IC50 (MTP): 4.79 nM; IC50 [1]: 3.85 nM

Q: How did the IC50 (MTP) turn out when `CCOC(=O)C(c1ccccc1)N1CCC(c2ccc(NC(=O)c3ccccc3-c3ccc(C(F)(F)F)cc3)cc2)CC1` (single isomer, unassigned) [Co. No. 265] was run?
A: The IC50 was 5.62 nM.

Q: For `COC(=O)C(c1ccccc1)C1CCN(c2ccc(NC(=O)c3ccccc3-c3ccc(C(C)(C)C)cc3)cc2)CC1` (stereo not drawn) [Co. No. 203], which IC50 (MTP) is on record?
A: Its IC50 is 2.08 nM.

Q: What about the pIC50 ([1]; listed as 203) of the same compound?
A: Its pIC50 is 8.333.

Q: Which IC50 (MTP) does the source give for `COC(=O)C(c1ccccc1)N1CCN(c2ccc(NC(=O)c3ccccc3-c3ccc(C(F)(F)F)cc3)cc2)CC1` (stereo not drawn) [Co. No. 40, methyl α-phenyl-4-[4-[[[4′-(trifluoromethyl)[1,1′-biphenyl]-2-yl]carbonyl]amino]phenyl]-1-piperazineacetate] here?
A: Its IC50 is 4.53 nM.

Q: And the pIC50 ([1]; listed as 40)?
A: Its pIC50 is 7.586.

Q: `O=C(Nc1ccc(N2CCC(C(C(=O)NCc3ccccc3)c3ccccc3)CC2)cc1)c1ccccc1Cc1ccccc1` (stereo not drawn) [Co. No. 10] was tested. Which IC50 (MTP) did it give?
A: Its IC50 is > 3000 nM.

Q: What about the IC50 [1] of the same compound?
A: Its IC50 is 241 nM.

Q: Which IC50 (MTP) does the source give for `CCOC(=O)C(c1ccccc1)N1CCC(c2ccc(NC(=O)c3ccccc3-c3ccc(C(F)(F)F)cc3)cc2)CC1` (stereo not drawn) [Co. No. 222] here?
A: Its IC50 is 8.41 nM.

Q: And the IC50 [1]?
A: The IC50 was 19.2 nM.

Q: For `CCCCCNC(=O)C(c1ccccc1)N1CCC(c2ccc(NC(=O)c3ccccc3-c3ccc(C(F)(F)F)cc3)cc2)CC1` (stereo not drawn) [Co. No. 75], which IC50 (MTP) is on record?
A: Its IC50 is 8.38 nM.

Q: And the IC50 [1]?
A: The IC50 was 11.4 nM.

Q: `C=CCNC(=O)C(c1ccccc1)N1CCN(c2ccc(NC(=O)c3ccccc3-c3ccc(C(F)(F)F)cc3)cc2)CC1` (stereo not drawn) [Co. No. 57] was tested. Which IC50 (MTP) did it give?
A: The IC50 was 6.87 nM.

Q: And the IC50 [1]?
A: The IC50 was 7.57 nM.

Q: With `COC(=O)C(c1ccccc1)C1CCN(c2ccc(NC(=O)c3ccccc3-c3ccc(C(F)(F)F)cc3)cc2)CC1` (stereo not drawn) [Co. No. 241] as the compound, how does the IC50 (MTP) read?
A: Its IC50 is 10.4 nM.

Q: And the pIC50 ([1]; listed as 241)?
A: Its pIC50 is 7.578.

Q: With `O=C(Nc1ccc(N2CCC(C(C(=O)NCc3ccccc3)c3ccccc3)CC2)cc1)c1ccccc1-c1ccc(C(F)(F)F)cc1` (stereo not drawn) [Co. No. 11] as the compound, how does the IC50 (MTP) read?
A: Its IC50 is 7.31 nM.

Q: And the IC50 [1]?
A: Its IC50 is 4.62 nM.

Q: With `O=C(Nc1ccc(N2CCC(C(C(=O)NCc3ccccc3)c3ccccc3)CC2)cc1)c1ccccc1CSc1ccccc1` (stereo not drawn) [Co. No. 6] as the compound, how does the IC50 (MTP) read?
A: The IC50 was 198 nM.

Q: What about the IC50 [1] of the same compound?
A: The IC50 was 108 nM.

Q: `CC(C)CNC(=O)C(c1ccccc1)N1CCN(c2ccc(NC(=O)c3ccccc3-c3ccc(C(F)(F)F)cc3)cc2)CC1` (stereo not drawn) [Co. No. 58] was tested. Which IC50 (MTP) did it give?
A: The IC50 was 15.9 nM.

Q: What about the IC50 [1] of the same compound?
A: Its IC50 is ≤ 30 nM.

Q: Which IC50 (MTP) does the source give for `COC(=O)C(c1ccccc1)C1CCN(c2ccc(NC(=O)c3ccccc3-c3ccc(C(C)C)cc3)cc2)CC1` (stereo not drawn) [Co. No. 232] here?
A: Its IC50 is 25 nM.

Q: What about the IC50 [1] of the same compound?
A: The IC50 was < 30 nM.

Q: For `O=C(Nc1ccc(N2CCC(C(C(=O)NCc3ccccc3)c3ccccc3)CC2)cc1)c1ccccc1-c1ccccc1` (stereo not drawn) [Co. No. 3], which IC50 (MTP) is on record?
A: Its IC50 is 18.4 nM.

Q: And the IC50 [1]?
A: Its IC50 is 25.6 nM.

Q: `CCOC(=O)C(c1ccccc1)N1CCC(c2ccc(NC(=O)c3ccccc3-c3ccc(C(F)(F)F)cc3)cc2)CC1` (single isomer, unassigned) [Co. No. 264] was tested. Which IC50 (MTP) did it give?
A: The IC50 was 31.8 nM.

Q: Which IC50 (MTP) does the source give for `CCNC(=O)C(c1ccccc1)N1CCN(c2ccc(NC(=O)c3cccc(C)c3-c3ccc(C(F)(F)F)cc3)cc2)CC1` (stereo not drawn) [Co. No. 199] here?
A: The IC50 was 4.63 nM.
